In ChEMBL document CHEMBL1139389, “Discovery of the Poly(ADP-ribose) polymerase (PARP) inhibitor 2-[(R)-2-methylpyrrolidin-2-yl]-1H-benzimidazole-4-carboxamide (ABT-888) for the treatment of cancer” (J Med Chem, 2009):

System: MX1
Assay: animal or person
Conditions: Mus musculus, MX1, ip, 816 h, read-out: TGI

Structure (SMILES): O=P1(N(CCCl)CCCl)NCCCO1 (stereo unspecified) [CYCLOPHOSPHAMIDE ANHYDROUS]
- inhibition in vivo at 12.5 mg/kg/day: 73%
